Experimental findings from patent US20040087612A1, “Method of increasing lacrimal gland tearing by topical administration of tacrolimus” (priority 2002, published 2004) are described below.

The subject of the test is dogs with naturally occurring keratoconjunctivitis sicca. Kind of test: Schirmer tear quantification in dogs treated topically with tacrolimus suspension. The class given is in vivo, dog. The settings on record: topical administration to the eye. The text has this: In the present invention, tacrolimus is typically administered topically as an aqueous ophthalmic suspension that can be in the form of drops or an ointment. While the particular mixture and efficacious concentration of tacrolimus can be varied, one such suspension used in the treatment of a number of dogs included the following: i) Approximately 0.02 percent weight/volume tacrolimus crystals, ii) Approximately 0.2 percent weight/volume hydroxypropyl methylcellulose, iii) Approximately 0.4 percent weight/volume lactose, and iv) Sterile, deionized water mixed with the first three ingredients in an amount sufficient to achieve the above-noted concentrations. The following examples illustrate the effectiveness of the treatment method of the present invention. Specifically, eleven different dogs of varying breeds and ages were treated using the above solution for treatment periods ranging from 20-84 days. The eleven dogs had naturally occurring keratoconjunctivitis sicca. The subject dogs received one drop of the above-described tacrolimus-based suspension topically in the eye, twice a day. Prior to therapy, tear production was measured using standard Schirmer tear quantification. Corneal fibrosis, vascularization and pigmentation were measured using slit lamp biomicroscopy and fundus reflection during indirect ophthalmoscopy. […]

Turning to `C=CC[C@@H]1/C=C(\C)C[C@H](C)C[C@H](OC)[C@H]2O[C@@](O)(C(=O)C(=O)N3CCCC[C@H]3C(=O)O[C@H](/C(C)=C/[C@@H]3CC[C@@H](O)[C@H](OC)C3)[C@H](C)[C@@H](O)CC1=O)[C@H](C)C[C@@H]2OC` [tacrolimus, Tacrolimus], the “effect on lacrimal gland tearing” value is reported as “increases lacrimal gland tearing”.
